Data reported in PMC6894747 (PLoS Pathogens, 2019).
Positions of bridges follow the written chain, without caps; N, C: chain ends. Residues, ends and D or L forms follow the SMILES beside them.

Assays:
HIV-1 JR-CSF [1] = test: Therapeutic efficacy in humanized mice with established HIV-1 infection; format: in vivo, humanized NRG mice; conditions: n = 4
Description: Humanized mice were inoculated with HIV-1 JR-CSF (10 ng p24/mouse) through retro-orbital injection and randomly assigned to 2 groups (4 mice in each group).
HIV-1 genomic RNA was purified from plasma by using the QIAamp Viral RNA Mini Kit. The RNA was reverse-transcribed and quantitatively detected by real-time PCR with the TaqMan Fast Virus 1-Step PCR kit (Thermo Fisher Scientific). We used the forward primer 5’-[…]-3’ and the reverse primer 5’-[…]-3’ to detect the HIV gag gene. […] The limit of detection of each real-time PCR was 4 copies per reaction. Accordingly, owing to the relatively small volume of plasma in mice (about 50–100 μL total blood), the limit of detection was 400 copies/mL plasma. The copy numbers below the detectable limit were set as 1. Triplicate reactions were performed for each sample.

HIV-1 JR-CSF [2] = test: Inhibitors alone or in combination against HIV-1 JR-CSF; format: cell-based
Description: The samples were serially diluted and tested for their inhibitory activity on HIV-1 infection as described above. The data were analyzed for synergistic effect by calculating the combination index (CI) with the CalcuSyn software. CI values of <0.95 and >1.05 indicate synergy and antagonism, respectively. CI <0.1, 0.1–0.3, 0.3–0.7, 0.7–0.85, and 0.85–0.90 indicate very strong synergism, strong synergism, synergism, moderate synergism, and slight synergism, respectively. Fold of dose reduction was calculated with the ratio of concentrations of inhibitor testing alone and in combination.

Pseudoviruses = test: Inhibition of pseudotyped HIV-1 infection, panel average; format: cell-based; conditions: average IC50 of 12 pseudotyped strains
Description: HIV-1 pseudoviruses were generated, as described previously.

HIV-1 clinical strains = format: cell-based; conditions: 8 clinical strains
Description: Briefly, 1×10^5/mL MT-2 or M7 cells were infected with different HIV-1 viruses at 100 TCID50 (50% tissue culture infective dose) in the presence or absence of peptides at graded concentrations overnight. Then the culture supernatants were replaced with equal volume of fresh medium. On the fourth day post-infection, supernatants were collected and mixed with equal volume of 5% Triton X-100. […] The IC50 values were calculated with CalcuSyn software [35–36], and inhibition curves of best fit were generated with GraphPad Prism.

CC[C@H](C)[C@H](NC(=O)[C@H](CC(C)C)NC(=O)[C@H](CCC(=O)O)NC(=O)[C@H](CCC(=O)O)NC(=O)[C@@H](NC(=O)[C@H](CCCCN)NC(=O)[C@H](CCCCN)NC(=O)[C@@H](NC(=O)[C@H](Cc1ccc(O)cc1)NC(=O)[C@H](CCC(=O)O)NC(=O)[C@H](CCC(=O)O)NC(=O)[C@@H](NC(=O)[C@H](CCCCN)NC(=O)[C@H](CCCCN)NC(=O)[C@H](CC(=O)O)NC(=O)[C@H](Cc1c[nH]c2ccccc12)NC(=O)[C@H](CCC(=O)O)NC(=O)[C@H](CCC(=O)O)NC(=O)[C@H](Cc1c[nH]c2ccccc12)NC(=O)[C@@H](NC(=O)[C@H](CCSC)NC(=O)[C@@H](NC(=O)[C@@H]1CSSC[C@H](NC(=O)[C@@H](N)CC(=O)O)C(=O)N[C@@H](C)C(=O)N[C@@H](Cc2c[nH]c3ccccc23)C(=O)N[C@@H](Cc2c[nH]cn2)C(=O)N[C@@H](CC(C)C)C(=O)NCC(=O)N[C@@H](CCC(=O)O)C(=O)N[C@@H](CC(C)C)C(=O)N[C@@H](C(C)C)C(=O)N[C@@H](Cc2c[nH]c3ccccc23)C(=O)N1)[C@@H](C)O)[C@@H](C)O)[C@@H](C)CC)[C@@H](C)O)[C@@H](C)CC)C(=O)N[C@@H](CCCCN)C(=O)N[C@@H](CCCCN)C(=O)N[C@@H](CO)C(=O)O [IBP-CP24] (H-DCAWHLGELVWCTMTWEEWDKKIEEYTKKIEELIKKS-OH; disulfide 2-12; N-terminus and C-terminus assumed)
mean Δlog10 plasma HIV-1 RNA (HIV-1 JR-CSF [1]; 20 mg/kg i.p. once daily for 14 days, coinjected with human IgG 40 mg/kg twice weekly): 0.13 log10 | average decrease of plasma HIV-1 RNA (HIV-1 JR-CSF [1]; day 35 post-treatment, after twice daily 20 mg/kg for 21 days plus human IgG): 1.42 log10 | Dose reduction (HIV-1 JR-CSF [2]; mixture 10E8 / IBP-CP24, HIV-1 JR-CSF): 9.0 fold | Dose reduction (HIV-1 JR-CSF [2]; mixture C34 / IBP-CP24, HIV-1 JR-CSF): 0.4 fold | Dose reduction (HIV-1 JR-CSF [2]; mixture VRC07 / IBP-CP24, HIV-1 JR-CSF): 4.4 fold | fold more potent than CP24, pseudotyped strains (Pseudoviruses): ~4.9 fold | fold more potent than T20, pseudotyped strains (Pseudoviruses): about 24.2 fold | average IC50 fold of that of CP24, clinical strains (HIV-1 clinical strains; comparison with CP24): ~1.1 fold | average IC50 fold of that of T20, clinical strains (HIV-1 clinical strains; comparison with T20): about 2.5 fold
